Molecular target: T1, APOL1 G1 (Homo sapiens, UniProt O14791, I384M/S342G)
T1 sequence (O14791 28-398 S342G/I384M): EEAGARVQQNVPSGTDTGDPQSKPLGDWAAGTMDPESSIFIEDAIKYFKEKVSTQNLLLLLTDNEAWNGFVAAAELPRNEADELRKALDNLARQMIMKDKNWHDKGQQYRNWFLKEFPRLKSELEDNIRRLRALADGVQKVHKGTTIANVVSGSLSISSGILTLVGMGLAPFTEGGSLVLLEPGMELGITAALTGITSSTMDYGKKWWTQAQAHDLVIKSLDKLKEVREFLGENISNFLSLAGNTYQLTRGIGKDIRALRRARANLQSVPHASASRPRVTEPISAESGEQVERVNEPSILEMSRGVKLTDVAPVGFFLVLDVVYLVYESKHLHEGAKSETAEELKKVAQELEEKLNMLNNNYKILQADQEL
Test: MultiTox-Fluor Multiplex Cytotoxicity Assay, tet-inducible APOL1 G1 T-REx-HEK293 cells
Format: cell-based
Parameters: expressed in transfected cells; host or cells: T-REx HEK293, clone G1 DC3.25 (pAAVS1-Puro-APOL1 G1)
Settings: for IC90: HEK293, Multi-Tox Assay, APOL1 variant (G0/G1/G2) of the HEK293 cells not given, read-out: Multi-Tox Assay IC90; for Multi-Tox Assay Max Activity (%): APOL1 variant not given
Outline: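 Over 24 h at 37 °C, compounds (10-point 3-fold series from 10 µM, duplicate) were co-incubated with 50 ng/mL tetracycline inducing APOL1 G1 in T-REx-HEK293 cells. Viability/cytotoxicity measured by MultiTox-Fluor as dead-to-live fluorescence ratio, expressed as percent of control between uninduced and induced wells and fitted.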

## Cc1ccccc1C(O)Cn1cc([C@@H]2C[C@]3(C[C@H](C)N2)OCC(F)(F)c2cc(Cl)sc23)nn1 (stereo partly shown) [Compound 304]
  IC90: 50 to 500 nM

## C[C@H]1C[C@@]2(C[C@@H](c3cn(CCc4ccncn4)nn3)N1)OCC(F)(F)c1cc(Cl)sc12 [Compound 305]
  IC90: 50 to 500 nM
  Multi-Tox Assay Max Activity (%): 100.0%

## CC(CO)CCn1cc([C@@H]2C[C@]3(C[C@H](C)N2)OCC(F)(F)c2cc(Cl)sc23)nn1 (stereo partly shown) [Compound 306]
  IC90: > 500 nM

## C[C@H]1C[C@@]2(C[C@@H](c3cn(CC4CCS(=O)(=O)C4)nn3)N1)OCC(F)(F)c1cc(Cl)sc12 (stereo partly shown) [Compound 307]
  IC90: 50 to 500 nM

## C[C@H]1C[C@@]2(C[C@@H](c3cn(Cc4ccc(OC5CCOCC5)cc4)nn3)N1)OCC(F)(F)c1cc(Cl)sc12 [Compound 308]
  IC90: > 500 nM
  Multi-Tox Assay Max Activity (%): 95.0%

## C[C@H]1C[C@@]2(C[C@@H](c3cn(CC4CCOCC4)nn3)N1)OCC(F)(F)c1cc(Cl)sc12 [Compound 309]
  IC90: 50 to 500 nM
  Multi-Tox Assay Max Activity (%): 97.0%

## C[C@H]1C[C@@]2(C[C@@H](c3cn(Cc4cccc5c4OCCO5)nn3)N1)OCC(F)(F)c1cc(Cl)sc12 [Compound 310]
  IC90: > 500 nM
  Multi-Tox Assay Max Activity (%): 94.0%

## C[C@H]1C[C@@]2(C[C@@H](c3cn(CC4CCOC4)nn3)N1)OCC(F)(F)c1cc(Cl)sc12 (stereo partly shown) [Compound 311]
  IC90: 50 to 500 nM

## C[C@H]1C[C@@]2(C[C@@H](c3cn(Cc4cccc(CO)c4)nn3)N1)OCC(F)(F)c1cc(Cl)sc12 [Compound 313]
  IC90: 50 to 500 nM
  Multi-Tox Assay Max Activity (%): 98.0%

## C[C@H]1C[C@@]2(C[C@@H](c3cn(CCC4CCCOC4)nn3)N1)OCC(F)(F)c1cc(Cl)sc12 (stereo partly shown) [Compound 314]
  IC90: < 50 nM

## Cc1ccnn1CCn1cc([C@@H]2C[C@]3(C[C@H](C)N2)OCC(F)(F)c2cc(Cl)sc23)nn1 [Compound 315]
  IC90: 50 to 500 nM
  Multi-Tox Assay Max Activity (%): 98.0%

## C[C@H]1C[C@@]2(C[C@@H](c3cn(Cc4ccc(O)nc4)nn3)N1)OCC(F)(F)c1cc(Cl)sc12 [Compound 316]
  IC90: > 500 nM
  Multi-Tox Assay Max Activity (%): 95.0%

## C[C@H]1C[C@@]2(C[C@@H](c3cn(Cc4cnccn4)nn3)N1)OCC(F)(F)c1cc(Cl)sc12 [Compound 317]
  IC90: 50 to 500 nM
  Multi-Tox Assay Max Activity (%): 98.0%

## Cc1ncc(Cn2cc([C@@H]3C[C@]4(C[C@H](C)N3)OCC(F)(F)c3cc(Cl)sc34)nn2)cn1 [Compound 318]
  IC90: < 50 nM

## COc1cccc(Cn2cc([C@@H]3C[C@]4(C[C@H](C)N3)OCC(F)(F)c3cc(Cl)sc34)nn2)c1 [Compound 319]
  IC90: 50 to 500 nM
  Multi-Tox Assay Max Activity (%): 95.0%

## C[C@H]1C[C@@]2(C[C@@H](c3cn(Cc4cccc(O)c4)nn3)N1)OCC(F)(F)c1cc(Cl)sc12 [Compound 320]
  IC90: > 500 nM
  Multi-Tox Assay Max Activity (%): 95.0%

## C[C@H]1C[C@@]2(C[C@@H](c3cn(Cc4cccnn4)nn3)N1)OCC(F)(F)c1cc(Cl)sc12 [Compound 321]
  IC90: 50 to 500 nM

## C[C@H]1C[C@@]2(C[C@@H](c3cn(CC(O)c4ccccc4)nn3)N1)OCC(F)(F)c1cc(Cl)sc12 (stereo partly shown) [Compound 322]
  IC90: 50 to 500 nM
  Multi-Tox Assay Max Activity (%): 97.0%

## COCCn1cc([C@@H]2C[C@]3(C[C@H](C)N2)OCC(F)(F)c2cc(Cl)sc23)nn1 [Compound 323]
  IC90: 50 to 500 nM
  Multi-Tox Assay Max Activity (%): 100.0%

## C[C@H]1C[C@@]2(C[C@@H](c3cn(CC(F)F)nn3)N1)OCC(F)(F)c1cc(Cl)sc12 [Compound 324]
  IC90: > 500 nM
  Multi-Tox Assay Max Activity (%): 96.0%

## CCC(O)Cn1cc([C@@H]2C[C@]3(C[C@H](C)N2)OCC(F)(F)c2cc(Cl)sc23)nn1 (stereo partly shown) [Compound 325]
  IC90: 50 to 500 nM
  Multi-Tox Assay Max Activity (%): 98.0%

## Cc1c(Cn2cc([C@@H]3C[C@]4(C[C@H](C)N3)OCC(F)(F)c3cc(Cl)sc34)nn2)cnn1C [Compound 326]
  IC90: 50 to 500 nM
  Multi-Tox Assay Max Activity (%): 97.0%

## CC(C)N1CC(Cn2cc([C@@H]3C[C@]4(C[C@H](C)N3)OCC(F)(F)c3cc(Cl)sc34)nn2)CC1=O (stereo partly shown) [Compound 327]
  IC90: 50 to 500 nM
  Multi-Tox Assay Max Activity (%): 98.0%

## C[C@H]1C[C@@]2(C[C@@H](c3cn(CCC(N)=O)nn3)N1)OCC(F)(F)c1cc(Cl)sc12 [Compound 328]
  IC90: 50 to 500 nM
  Multi-Tox Assay Max Activity (%): 100.0%

## C[C@H]1C[C@@]2(C[C@@H](c3cn(CC4(F)CCOCC4)nn3)N1)OCC(F)(F)c1cc(Cl)sc12 [Compound 329]
  IC90: > 500 nM
  Multi-Tox Assay Max Activity (%): 90.0%

## CCn1cc(Cn2cc([C@@H]3C[C@]4(C[C@H](C)N3)OCC(F)(F)c3cc(Cl)sc34)nn2)cn1 [Compound 330]
  IC90: 50 to 500 nM

## C[C@H]1C[C@@]2(C[C@@H](c3cn(Cc4cocn4)nn3)N1)OCC(F)(F)c1cc(Cl)sc12 [Compound 331]
  IC90: 50 to 500 nM
  Multi-Tox Assay Max Activity (%): 98.0%

## C[C@H]1C[C@@]2(C[C@@H](c3cn(Cc4ccccn4)nn3)N1)OCC(F)(F)c1cc(Cl)sc12 [Compound 332]
  IC90: 50 to 500 nM
  Multi-Tox Assay Max Activity (%): 96.0%

## COc1cc(F)cc(Cn2cc([C@@H]3C[C@]4(C[C@H](C)N3)OCC(F)(F)c3cc(Cl)sc34)nn2)c1 [Compound 333]
  IC90: 50 to 500 nM
  Multi-Tox Assay Max Activity (%): 97.0%

## Cc1ccc(Cn2cc([C@@H]3C[C@]4(C[C@H](C)N3)OCC(F)(F)c3cc(Cl)sc34)nn2)nc1 [Compound 334]
  IC90: > 500 nM
  Multi-Tox Assay Max Activity (%): 96.0%

## COc1ccc(Cn2cc([C@@H]3C[C@]4(C[C@H](C)N3)OCC(F)(F)c3cc(Cl)sc34)nn2)cc1 [Compound 335]
  IC90: > 500 nM
  Multi-Tox Assay Max Activity (%): 96.0%

## Cc1cc(Cn2cc([C@@H]3C[C@]4(C[C@H](C)N3)OCC(F)(F)c3cc(Cl)sc34)nn2)ccn1 [Compound 336]
  IC90: 50 to 500 nM

## Cc1nc(Cn2cc([C@@H]3C[C@]4(C[C@H](C)N3)OCC(F)(F)c3cc(Cl)sc34)nn2)oc1C [Compound 337]
  IC90: 50 to 500 nM

## Cc1nnc(Cn2cc([C@@H]3C[C@]4(C[C@H](C)N3)OCC(F)(F)c3cc(Cl)sc34)nn2)[nH]1 [Compound 339]
  IC90: 50 to 500 nM
  Multi-Tox Assay Max Activity (%): 97.0%

## COCCOCCn1cc([C@@H]2C[C@]3(C[C@H](C)N2)OCC(F)(F)c2cc(Cl)sc23)nn1 [Compound 340]
  IC90: 50 to 500 nM
  Multi-Tox Assay Max Activity (%): 98.0%

## Cc1nccn1CCCn1cc([C@@H]2C[C@]3(C[C@H](C)N2)OCC(F)(F)c2cc(Cl)sc23)nn1 [Compound 341]
  IC90: > 500 nM
  Multi-Tox Assay Max Activity (%): 98.0%

## COCC(O)Cn1cc([C@@H]2C[C@]3(C[C@H](C)N2)OCC(F)(F)c2cc(Cl)sc23)nn1 (stereo partly shown) [Compound 342]
  IC90: 50 to 500 nM
  Multi-Tox Assay Max Activity (%): 98.0%

## C[C@H]1C[C@@]2(C[C@@H](c3cn(CC4CCCCO4)nn3)N1)OCC(F)(F)c1cc(Cl)sc12 (stereo partly shown) [Compound 343]
  IC90: 50 to 500 nM
  Multi-Tox Assay Max Activity (%): 97.0%

## C[C@H]1C[C@@]2(C[C@@H](c3cn(CCCS(C)(=O)=O)nn3)N1)OCC(F)(F)c1cc(Cl)sc12 [Compound 344]
  IC90: 50 to 500 nM

## CC(C)C(=O)NCCn1cc([C@@H]2C[C@]3(C[C@H](C)N2)OCC(F)(F)c2cc(Cl)sc23)nn1 [Compound 345]
  IC90: 50 to 500 nM

## C[C@H]1C[C@@]2(C[C@@H](c3cn(Cc4nc5ncccc5[nH]4)nn3)N1)OCC(F)(F)c1cc(Cl)sc12 [Compound 346]
  IC90: 50 to 500 nM

## C[C@H]1C[C@@]2(C[C@@H](c3cn(Cc4ccccc4S(C)(=O)=O)nn3)N1)OCC(F)(F)c1cc(Cl)sc12 [Compound 347]
  IC90: 50 to 500 nM
  Multi-Tox Assay Max Activity (%): 96.0%

## COc1ccc(C(O)Cn2cc([C@@H]3C[C@]4(C[C@H](C)N3)OCC(F)(F)c3cc(Cl)sc34)nn2)cc1 (stereo partly shown) [Compound 348]
  IC90: > 500 nM
  Multi-Tox Assay Max Activity (%): 97.0%

## C[C@H]1C[C@@]2(C[C@@H](c3cn(Cc4n[nH]c5ccccc45)nn3)N1)OCC(F)(F)c1cc(Cl)sc12 [Compound 349]
  IC90: > 500 nM
  Multi-Tox Assay Max Activity (%): 91.0%

## C[C@H]1C[C@@]2(C[C@@H](c3cn(Cc4ncnc5[nH]ccc45)nn3)N1)OCC(F)(F)c1cc(Cl)sc12 [Compound 350]
  IC90: 50 to 500 nM

## Cc1cc(C)nc(CCn2cc([C@@H]3C[C@]4(C[C@H](C)N3)OCC(F)(F)c3cc(Cl)sc34)nn2)c1 [Compound 351]
  IC90: 50 to 500 nM
  Multi-Tox Assay Max Activity (%): 98.0%

## C[C@H]1C[C@@]2(C[C@@H](c3cn(Cc4ccc(C#N)nc4)nn3)N1)OCC(F)(F)c1cc(Cl)sc12 [Compound 352]
  IC90: 50 to 500 nM

## Cc1noc(C)c1Cn1cc([C@@H]2C[C@]3(C[C@H](C)N2)OCC(F)(F)c2cc(Cl)sc23)nn1 [Compound 353]
  IC90: < 50 nM
  Multi-Tox Assay Max Activity (%): 100.0%

## C[C@H]1C[C@@]2(C[C@@H](c3cn(CCOc4ccccc4F)nn3)N1)OCC(F)(F)c1cc(Cl)sc12 [Compound 354]
  IC90: 50 to 500 nM

## C[C@H]1C[C@@]2(C[C@@H](c3cn(Cc4ccc(S(C)(=O)=O)cc4)nn3)N1)OCC(F)(F)c1cc(Cl)sc12 [Compound 355]
  IC90: 50 to 500 nM
  Multi-Tox Assay Max Activity (%): 98.0%

## C[C@H]1C[C@@]2(C[C@@H](c3cn(CC4(CO)CC4)nn3)N1)OCC(F)(F)c1cc(Cl)sc12 [Compound 357]
  IC90: 50 to 500 nM

Source: patent EP4810040A2, “INHIBITORS OF APOL1 AND METHODS OF USING SAME” (priority 2020, dated 2022)
